These results are taken from publication PMC5011342, “A high throughput drug screening assay to identify compounds that promote oligodendrocyte differentiation using acutely dissociated and purified oligodendrocyte precursor cells” (BMC Research Notes, 2016).

Series [1] has as its system acutely dissociated and purified rat OPCs. As to the kind of experiment: Acute OL differentiation assay (MBP expression/cell, immunofluorescent image quantification). Type of series: cell-based. The settings on record: sheet "All OLga data"; for activation at 2 µM / activation at 10 µM / activation at 0.4 µM: Rattus norvegicus. In outline: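 Oligodendrocyte precursor cells were enriched from P6-P7 Sprague–Dawley rat brains by immunopanning (RAN-2 and GalC depletion, O4 selection), plated at 5000 cells/well in serum-free, mitogen-free differentiation media on PDL/laminin 96-well view plates, centrifuged at 200×g, and pre-incubated 1–2 h before test compounds were added in quadruplicate. On DIV4, cells were fixed, stained for MBP and DAPI, imaged automatically, and MBP expression per cell was quantified.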

The subject of series [2] is expanded OPCs. Nature of the series: cells. The settings on record: for 0.1 µM (% DMSO) / 1 µM (% DMSO) / 10 µM (% DMSO): alamarBlue viability of expanded OPCs; for 0.1 µM (% DMSO): compound at 0.1 µM; for 1 µM (% DMSO): compound at 1 µM; for 10 µM (% DMSO): compound at 10 µM; for viability at 0.1 µM / viability at 1 µM / viability at 10 µM: Rattus norvegicus, 72 h. In short, it runs like this:
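Expanded OPCs seeded at 10,000 cells/well in differentiation media, then exposed to NCC library compounds at 10, 1 and 0.1 µM (quadruplicate, 0.1% DMSO) for three days. Viability read as alamarBlue fluorescence (560/590 nm) after 4 h at 37 °C; tunicamycin 5 ng/ml served as toxicity control.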

The mark [3] stands for this setting: test compound at 2 uM, MBP expression relative to quetiapine, NCC library screen, read-out: 2 uM (% Quet).
[4] abbreviates: test compound at 10 uM, MBP expression relative to quetiapine, NCC library screen, read-out: 10 uM (% Quet).
Where [5] appears, read: 0.4 uM test compound, relative to quetiapine, read-out: OL differentiation, 0.4 uM (% Quet).
The mark [6] stands for this setting: 2 uM test compound, relative to quetiapine, read-out: OL differentiation, 2 uM (% Quet).
Where [7] appears, read: read-out: 0.1 µM (% DMSO), alamarBlue viability, NCC library compound at 0.1 µM, sheet "All Tox data".
Where [8] appears, read: read-out: 1 µM (% DMSO), alamarBlue viability, NCC library compound at 1 µM, sheet "All Tox data".
[9] abbreviates: read-out: 10 µM (% DMSO), alamarBlue viability, NCC library compound at 10 µM, sheet "All Tox data".
Where [10] appears, read: 10 uM test compound, relative to quetiapine, read-out: OL differentiation, 10 uM (% Quet).
[11] abbreviates: read-out: 0.1 µM (% DMSO), alamarBlue viability of expanded OPCs, compound at 0.1 µM, sheet All Tox data.
Where [12] appears, read: read-out: 1 µM (% DMSO), alamarBlue viability of expanded OPCs, compound at 1 µM, sheet All Tox data.
Setting [13] is: read-out: 10 µM (% DMSO), alamarBlue viability of expanded OPCs, compound at 10 µM, sheet All Tox data.
[14] abbreviates: test compound at 2 uM, NCC library screen, relative to quetiapine, read-out: 2 uM (% Quet).
Where [15] appears, read: test compound at 10 uM, NCC library screen, relative to quetiapine, read-out: 10 uM (% Quet).

Read-outs that look alike come from different tables or passages of the source.

Regarding `CCc1c(C)[nH]c2c1C(=O)C(CN1CCOCC1)CC2` (stereo not shown) [Molindone], the activation at 2 µM in series [1] (setting [3]) is 1.6%. The activation at 10 µM in series [1] (setting [4]) was -34.4%. In series [2] (relative to DMSO control), the “0.1 µM (% DMSO)” value came out at 90.6 % DMSO, the “1 µM (% DMSO)” value turned out to be 95.4 % DMSO and the “10 µM (% DMSO)” value stood at 105.0 % DMSO.
One may read the viability as a read-out of living cells in per cent, often relative to untreated cells. Turning to `CC(C)(O)c1ccccc1CC[C@@H](SCC1(CC(=O)O)CC1)c1cccc(/C=C/c2ccc3ccc(Cl)cc3n2)c1` [Montelukast], the activation at 0.4 µM in series [1] (setting [5]) was determined as 12.9%. For the same compound, the activation at 2 µM in series [1] (setting [6]) is -31.7%. The viability at 0.1 µM in series [2] (setting [7]) turned out to be 95.5%. In series [2] (setting [8]), the viability at 1 µM worked out at 83%. In series [2] (setting [9]), the viability at 10 µM is 11%.
With `CCOc1cc(N)c(Cl)cc1C(=O)NCC1CN(Cc2ccc(F)cc2)CCO1` (stereo not shown) [Mosapride], in series [1] (setting [6]), the activation at 2 µM was -17%. For the same compound, the activation at 10 µM in series [1] (setting [10]) amounted to 4.4%. Moreover, the viability at 0.1 µM in series [2] (setting [11]) turned out to be 102%. Besides, the viability at 1 µM in series [2] (setting [12]) came out at 104%. For the same compound, in series [2] (setting [13]), the viability at 10 µM is 130%.
In the case of `COc1nc(C)nc(Cl)c1N=C1NCCN1` [Moxonidine], in series [1] (setting [6]), the activation at 2 µM was -1.2%. Besides, the activation at 10 µM in series [1] (setting [10]) is -26.2%. Further, the viability at 0.1 µM in series [2] (setting [11]) was 85.4%. In addition, the viability at 1 µM in series [2] (setting [12]) was found to be 88.5%. In addition, the viability at 10 µM in series [2] (setting [13]) stood at 98.4%.
For `C/C(=C\C(=O)OCCCCCCCCC(=O)O)C[C@@H]1OC[C@H](C[C@@H]2O[C@H]2[C@@H](C)[C@H](C)O)[C@@H](O)[C@H]1O` [Mupirocin], in series [1] (setting [3]), the activation at 2 µM was -2.9%. Further, in series [1] (setting [4]), the activation at 10 µM stood at 0.04%. Besides, in series [2] (relative to DMSO control), the “0.1 µM (% DMSO)” value is listed as 103.2 % DMSO, the “1 µM (% DMSO)” value is on record as 108.1 % DMSO and the “10 µM (% DMSO)” value was determined as 104.3 % DMSO.
For `CN1CC[C@@H](c2ccc(F)cc2)[C@H](COc2ccc3c(c2)OCO3)C1` [N-Methylparoxetine], in series [1] (0.4 uM test compound, relative to quetiapine), the “OL differentiation, 0.4 uM (% Quet)” value is -15.7 % Quet. The “OL differentiation, 2 uM (% Quet)” value in series [1] (2 uM test compound, relative to quetiapine) was -45.1 % Quet. Besides, in series [2] (sheet All Tox data), the “0.1 µM (% DMSO)” value was determined as 86.7 % DMSO, the “1 µM (% DMSO)” value was 60.7 % DMSO and the “10 µM (% DMSO)” value amounted to 18.7 % DMSO.
Turning to `COc1ccc2cc(CCC(C)=O)ccc2c1` [Nabumetone], the activation at 2 µM in series [1] (setting [14]) came to 5.8%. Further, in series [1] (setting [15]), the activation at 10 µM was 14.1%. In series [2] (setting [7]), the viability at 0.1 µM amounted to 92%. For the same compound, the viability at 1 µM in series [2] (setting [8]) stood at 90.9%. Besides, in series [2] (setting [9]), the viability at 10 µM was found to be 94.8%.
Regarding `CC(C)(C)NCC(O)COc1cccc2c1CC(O)C(O)C2` (stereo not shown) [Nadolol], the activation at 2 µM in series [1] (setting [14]) was -14.4%. Further, in series [1] (setting [15]), the activation at 10 µM was -35%. Also, in series [2] (relative to DMSO control), the “0.1 µM (% DMSO)” value worked out at 102.3 % DMSO, the “1 µM (% DMSO)” value is 95.3 % DMSO and the “10 µM (% DMSO)” value is 94.0 % DMSO.
For the compound `CCCCN1CCCC1CNC(=O)c1cc(C#N)c2ccccc2c1OC` (stereo not shown) [Nafadotride], the activation at 0.4 µM in series [1] (test compound at 0.4 uM, NCC library screen, relative to quetiapine, read-out: 0.4 uM (% Quet)) was 7.6%. Also, the activation at 2 µM in series [1] (setting [14]) amounted to 26.6%. Further, the viability at 0.1 µM in series [2] (setting [7]) was determined as 118%. Further, the viability at 1 µM in series [2] (setting [8]) stood at 131%. In series [2] (setting [9]), the viability at 10 µM was 49.6%.
`CCOc1ccc2ccccc2c1C(=O)N[C@@H]1C(=O)N2[C@@H]1SC(C)(C)[C@@H]2C(=O)O` [Nafcillin]: the activation at 2 µM in series [1] (setting [14]) is -20.5%. Besides, in series [1] (setting [15]), the activation at 10 µM was 0.11%. In addition, in series [2] (relative to DMSO control), the “0.1 µM (% DMSO)” value came to 104.4 % DMSO, the “1 µM (% DMSO)” value is 94.8 % DMSO and the “10 µM (% DMSO)” value was 90.0 % DMSO.
As to `COc1ccccc1N1CCN(CC(O)COc2cccc3ccccc23)CC1` (stereo not shown) [Naftopidil], the activation at 0.4 µM in series [1] (setting [5]) was -7.9%. For the same compound, the activation at 2 µM in series [1] (setting [6]) was -49.3%. Also, the viability at 0.1 µM in series [2] (setting [11]) turned out to be 96.2%. Moreover, the viability at 1 µM in series [2] (setting [12]) was found to be 87.5%. Besides, the viability at 10 µM in series [2] (setting [13]) amounted to 26.4%.
